Assay results taken from patent US7713994B2 (Wyeth LLC, priority 2005, dated 2010).

Key:
[1] = biological target: T1, cyclin D1/cdk 4 enzyme (Homo sapiens, UniProt P11802); assay: CDK4 ELISA kinase assay (phospho-Rb ser 795 detection); assay type: biochemical; settings: In Vitro Enzyme Assays, 200 μM ATP, read-out: CDK4 IC50
T1 construct: made in house; host or cells: Sf9 insect cells, recombinant baculovirus
Procedure, shortened: (§1)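 GST-Rb C-terminal fragment coated on wells; kinase reaction: 200 μM ATP, 0.5 mg/ml BSA, HEPES pH 7.5, 10 mM MgCl2, baculovirus/Sf9 cyclin-CDK, 30° C, 1 h. Readout anti-phospho-Rb Ser795, HRP, TMB, A450. Test compound 10 ug/ml final.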

[2] = biological target: T2, cyclin E/CDK2 enzyme (Homo sapiens, UniProt P24941); assay: CDK2 ELISA kinase assay (phospho-Rb ser 795 detection); assay type: biochemical; settings: In Vitro Enzyme Assays, read-out: CDK2 IC50
T2 construct: made in house; host or cells: Sf9 insect cells, recombinant baculovirus
Procedure, shortened: as §1

[3] = biological target: T3, cyclin B/CDK1 enzyme (Homo sapiens, UniProt P06493); assay: CDK1 ELISA kinase assay (phospho-Rb ser 795 detection); assay type: biochemical; settings: In Vitro Enzyme Assays, read-out: CDK1 IC50
T3 construct: purchased New England BioLabs; host or cells: Sf9 insect cells, recombinant baculovirus
Procedure, shortened: as §1

[4] = tested on: BT474; assay: Cytotoxicity assay (SRB), BT474; assay type: cell-based; settings: Homo sapiens, BT-474, 144 h, BT474 cells, SRB, 6 days; read-out: In Vitro Cellular Activity IC50 BT474
Procedure, shortened: (§2)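 Cells seeded overnight at 37 °C, 7% CO2 (BT474 12000, HCT-116 4000, LoVo and MCF-7 6000 cells/well) in RPMI 1640 with 5% FBS, then exposed to compound dilutions for 3 days (BT474 6 days). Survival versus untreated controls by TCA fixation and SRB staining, absorbance 540 nm.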

[5] = tested on: HCT-116; assay: Cytotoxicity assay (SRB), HCT-116; assay type: cell-based; settings: Homo sapiens, HCT-116, 72 h, HCT116 cells, SRB, three days; read-out: In Vitro Cellular Activity IC50 HCT116
Procedure, shortened: as §2

[6] = tested on: LoVo; assay: Cytotoxicity assay (SRB), LoVo; assay type: cell-based; settings: Homo sapiens, LoVo, 72 h, LoVo cells, SRB, three days; read-out: In Vitro Cellular Activity IC50 LOVO
Procedure, shortened: as §2

[7] = tested on: MCF-7; assay: Cytotoxicity assay (SRB), MCF-7; assay type: cell-based; settings: Homo sapiens, MCF7, 72 h, MCF-7 cells, SRB, three days; read-out: In Vitro Cellular Activity IC50 MCF-7
Procedure, shortened: as §2

T1 sequence (P11802 whole entry, species assumed): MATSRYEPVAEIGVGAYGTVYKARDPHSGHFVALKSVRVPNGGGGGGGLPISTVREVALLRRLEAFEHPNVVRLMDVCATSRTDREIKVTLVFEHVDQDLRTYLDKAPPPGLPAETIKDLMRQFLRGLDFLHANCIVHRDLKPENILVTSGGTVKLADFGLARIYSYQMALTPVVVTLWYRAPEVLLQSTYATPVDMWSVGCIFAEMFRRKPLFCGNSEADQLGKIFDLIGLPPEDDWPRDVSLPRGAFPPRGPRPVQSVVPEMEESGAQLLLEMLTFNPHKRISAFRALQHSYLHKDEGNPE
T1 sequence (P24385 whole entry partner, species assumed): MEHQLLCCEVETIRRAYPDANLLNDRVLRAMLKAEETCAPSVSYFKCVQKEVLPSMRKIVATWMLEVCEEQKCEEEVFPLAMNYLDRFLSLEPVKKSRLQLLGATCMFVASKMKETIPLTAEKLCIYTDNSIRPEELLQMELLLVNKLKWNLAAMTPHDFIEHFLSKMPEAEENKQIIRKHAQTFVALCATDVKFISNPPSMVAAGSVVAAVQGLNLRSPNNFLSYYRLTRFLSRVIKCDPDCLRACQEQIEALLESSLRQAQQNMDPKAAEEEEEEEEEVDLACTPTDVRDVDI
T3 sequence (P06493 whole entry): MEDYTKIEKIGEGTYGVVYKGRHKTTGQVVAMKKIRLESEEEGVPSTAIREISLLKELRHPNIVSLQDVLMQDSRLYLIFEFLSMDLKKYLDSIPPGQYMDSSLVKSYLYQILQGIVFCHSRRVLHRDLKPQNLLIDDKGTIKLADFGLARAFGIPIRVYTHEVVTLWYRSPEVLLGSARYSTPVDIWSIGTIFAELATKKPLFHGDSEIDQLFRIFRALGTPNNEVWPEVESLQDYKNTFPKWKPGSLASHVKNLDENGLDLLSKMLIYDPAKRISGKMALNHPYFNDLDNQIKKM
T3 sequence (P14635 whole entry partner): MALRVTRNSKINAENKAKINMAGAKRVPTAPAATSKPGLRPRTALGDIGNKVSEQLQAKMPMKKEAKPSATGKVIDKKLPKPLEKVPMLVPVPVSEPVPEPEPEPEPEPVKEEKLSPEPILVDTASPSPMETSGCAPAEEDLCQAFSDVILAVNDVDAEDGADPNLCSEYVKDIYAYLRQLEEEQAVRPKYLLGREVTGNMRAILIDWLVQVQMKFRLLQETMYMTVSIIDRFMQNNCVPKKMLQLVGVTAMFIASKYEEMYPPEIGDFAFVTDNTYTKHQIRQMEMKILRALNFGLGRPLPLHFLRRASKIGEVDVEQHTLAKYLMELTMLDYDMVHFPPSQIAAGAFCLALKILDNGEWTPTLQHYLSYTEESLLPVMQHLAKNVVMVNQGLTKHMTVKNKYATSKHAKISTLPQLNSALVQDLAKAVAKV

Row | SMILES | IC50 [1] | IC50 [2] | IC50 [3] | IC50 [4] | IC50 [5] | IC50 [6] | IC50 [7] | melting point
1 | C[C@@H]1CN(c2cncc(N/C=C3\C(=O)NC(=O)c4ccc(-c5ccoc5)cc43)c2)C[C@H](C)N1 [Example 346, (4Z)-4-[({5-[(3R,5S)-3,5-Dimethylpiperazin-1-yl]pyridin-3-yl}amino)methylene]-6-(3-furyl)isoquinoline-1,3(2H,4H)-dione] | 0.18 µM | > 50 µM | > 50 µM | 0.96 µM | 1.9 µM | 2.1 µM | 1.4 µM | 175 to 176 °C
2 | CN(C)c1ccc(CN/C=C2\C(=O)NC(=O)c3ccc(I)cc32)cc1O [Example 347, (4Z)-4-({[4-(Dimethylamino)-3-hydroxybenzyl]amino}methylene)-6-iodoisoquinoline-1,3(2H,4H)-dione] | 0.005 µM | 1.5 µM | 6.7 µM | 2.4 µM | 3.1 µM | 2.7 µM | 2.2 µM | 198 to 199 °C
3 | CC(=O)N1CCC(c2ccc(N/C=C3\C(=O)NC(=O)c4ccc(-c5ccoc5)cc43)cc2)CC1 [Example 351, (4Z)-4-({[4-(1-Acetylpiperidin-4-yl)phenyl]amino}methylene)-6-(3-furyl)isoquinoline-1,3(2H,4H)-dione] | 0.13 µM | > 50 µM | > 50 µM | 1.1 µM | 3 µM | 2.7 µM | 2.1 µM | 178 to 179 °C
4 | Cc1cc(N/C=C2\C(=O)NC(=O)c3ccc(-c4ccoc4)cc32)cnc1N1C[C@@H](C)N[C@@H](C)C1 [Example 355, (4Z)-4-[({6-[(3R,5S)-3,5-Dimethylpiperazin-1-yl]-5-methylpyridin-3-yl}amino)methylene]-6-(3-furyl)isoquinoline-1,3(2H,4H)-dione] | 0.36 µM | > 50 µM | > 50 µM | 1.7 µM | 1.2 µM | 2 µM | 1.4 µM | 195 to 196 °C
5 | Cc1cc(N/C=C2\C(=O)NC(=O)c3ccc(-c4ccsc4)cc32)cnc1N1C[C@@H](C)N[C@@H](C)C1 [Example 356, (4Z)-4-[({6-[(3R,5S)-3,5-Dimethylpiperazin-1-yl]-5-methylpyridin-3-yl}amino)methylene]-6-thien-3-ylisoquinoline-1,3(2H,4H)-dione] | 0.39 µM | > 50 µM | > 50 µM | 3 µM | 1.6 µM | 2.8 µM | 2.7 µM | 219 to 220 °C
6 | COc1ccc(-c2ccc3c(c2)/C(=C/Nc2cnc(N4C[C@@H](C)N[C@@H](C)C4)c(C)c2)C(=O)NC3=O)cc1 [Example 357, (4Z)-4-[({6-[(3R,5S)-3,5-Dimethylpiperazin-1-yl]-5-methylpyridin-3-yl}amino)methylene]-6-(4-methoxyphenyl)isoquinoline-1,3(2H,4H)-dione] | 31 µM | > 50 µM | > 50 µM | 2.5 µM | 1.1 µM | 2.8 µM | 1.6 µM | 213 to 214 °C
7 | COc1ccc(-c2ccc3c(c2)/C(=C/Nc2ccc(CN4CCCC4C)cc2)C(=O)NC3=O)cc1 (centres unmarked) [Example 358, (4Z)-6-(4-Methoxyphenyl)-4-[({4-[(2-methylpyrrolidin-1-yl)methyl]phenyl}amino)-methylene]-isoquinoline-1,3(2H,4H)-dione] | 0.31 µM | 43.4 µM | 35.5 µM | 2.6 µM | 1.4 µM | 3 µM | 2.5 µM | 232 to 233 °C
8 | CN(C)C/C=C/C(=O)Nc1ccc(CN/C=C2\C(=O)NC(=O)c3ccc(I)cc32)cc1O [Example 359, (2E)-4-(Dimethylamino)-N-[2-hydroxy-4-({[(Z)-(6-iodo-1,3-dioxo-2,3-dihydroisoquinolin-4(1H)-ylidene)methyl]amino}methyl)phenyl]but-2-enamide] | 0.02 µM | 0.26 µM | 1.5 µM | 0.12 µM | 0.23 µM | 0.34 µM | 0.4 µM | 185 to 186 °C
9 | CCCNc1ccc(CN/C=C2\C(=O)NC(=O)c3ccc(I)cc32)cc1O [Example 366, (4Z)-4-({[3-Hydroxy-4-(propylamino)benzyl]amino}methylene)-6-iodoisoquinoline-1,3(2H,4H)-dione] | 0.12 µM | 1.9 µM | 31.7 µM | 3.8 µM | 3.3 µM | 2.8 µM | 6.9 µM | 236 to 237 °C
10 | O=C1NC(=O)c2ccc(Br)cc2/C1=C/Nc1cc(F)c(N2CCN3CCC[C@H]3C2)c(F)c1 [Example 370, (4Z)-6-Bromo-4-[({3,5-difluoro-4-[(8aS)-hexahydropyrrolo[1,2-a]pyrazin-2(1H)-yl]phenyl}amino)methylene]isoquinoline-1,3(2H,4H)-dione] | 21.1 µM | > 50 µM | 42.5 µM | 6.3 µM | 4.2 µM | 6.4 µM | 6.7 µM | 190 to 191 °C
11 | O=C1NC(=O)c2ccc(-c3ccsc3)cc2/C1=C/Nc1cc(F)c(N2CCN3CCC[C@H]3C2)c(F)c1 [Example 371, (4Z)-4-[({3,5-Difluoro-4-[(8aS)-hexahydropyrrolo[1,2-a]pyrazin-2(1H)-yl]phenyl}amino)-methylene]-6-thien-3-ylisoquinoline-1,3(2H,4H)-dione] | 0.1 µM | > 50 µM | > 50 µM | 3.1 µM | 1.1 µM | 2.8 µM | 4.1 µM | 190 to 191 °C
12 | C[C@@H]1CN(c2ccc(N/C=C3\C(=O)NC(=O)c4ccc(Br)cc43)cc2C(F)(F)F)C[C@H](C)N1 [Example 372, (4Z)-6-Bromo-4-({[4-[(3R,5S)-3,5-dimethylpiperazin-1-yl]-3-(trifluoromethyl)phenyl]amino}methylene)isoquinoline-1,3(2H,4H)-dione] | > 50 µM | 20.2 µM | > 50 µM | 2.9 µM | 1.2 µM | 1.4 µM | 3.2 µM | 224 to 225 °C
13 | C[C@@H]1CN(c2ccc(N/C=C3\C(=O)NC(=O)c4ccc(-c5ccoc5)cc43)cc2)C[C@H](C)N1C(=O)CN(C)C [Example 373, (4Z)-4-[({4-[(3R,5S)-4-(N,N-Dimethylglycyl)-3,5-dimethylpiperazin-1-yl]phenyl}amino)methylene]-6-(3-furyl)isoquinoline-1,3(2H,4H)-dione] | 0.01 µM | > 50 µM | > 50 µM | 3.5 µM | 0.75 µM | 1.9 µM | 2.1 µM | 191 to 192 °C
14 | C[C@@H]1CN(c2ccc(N/C=C3\C(=O)NC(=O)c4ccc(-c5ccsc5)cc43)cc2)C[C@H](C)N1C(=O)CN(C)C [Example 380, (4Z)-4-[({4-[(3R,5S)-4-(N,N-Dimethylglycyl)-3,5-dimethylpiperazin-1-yl]phenyl}amino)methylene]-6-thien-3-ylisoquinoline-1,3(2H,4H)-dione] | 0.1 µM | > 50 µM | 42.5 µM | 9.1 µM | 0.5 µM | 8.2 µM | 3.4 µM | 198 to 199 °C
15 | C[C@@H]1CN(c2c(F)cc(N/C=C3\C(=O)NC(=O)c4ccc(Br)cc43)cc2F)C[C@H](C)N1 [Example 381, (4Z)-6-Bromo-4-[({4-[(3R,5S)-3,5-dimethylpiperazin-1-yl]-3,5-difluorophenyl}amino)-methylene]isoquinoline-1,3(2H,4H)-dione] | 13.2 µM | 3.1 µM | > 50 µM | 3 µM | 2 µM | 3.4 µM | 4.3 µM | 187 to 188 °C
16 | O=C1NC(=O)c2ccc(-c3ccsc3)cc2/C1=C/Nc1ccc(N2CCN3CCC[C@H]3C2)c(F)c1 [Example 382, (4Z)-4-[({3-Fluoro-4-[(8aS)-hexahydropyrrolo[1,2-a]pyrazin-2(1H)-yl]phenyl}amino)-methylene]-6-thien-3-ylisoquinoline-1,3(2H,4H)-dione] | 0.29 µM | > 50 µM | > 50 µM | 2.7 µM | 1.2 µM | 3.7 µM | 2.7 µM | 208 to 209 °C
